Measurements taken from patent publication US8779157B2, “MGLUR4 allosteric potentiators, compositions, and methods of treating neurological dysfunction” (Vanderbilt University, priority 2009, dated 2014).

What follows are compounds tested against mGluR4 (UniProt Q14833) (assay: mGluR4 potentiation assay (fluorescence, Ca2+ or thallium/GIRK readout; EC20 agonist)). Conditions: half maximal effective concentration for mGluR4 potentiation; species of receptor not given.
Format: cell-based, human / rat
Method: The disclosed compounds and compositions can be evaluated for their ability to act as a potentiator of metabotropic glutamate receptor activity, in particular mGluR4 activity, by any suitable known methodology known in the art. For example, Chinese Hamster Ovary (CHO) cells transfected with human mGluR4 or HEK cells co-transfected with rat mGluR4 and the G-protein regulated Inwardly Rectifying Potassium channel (GIRK) were plated in clear bottom assay plates for assay in a Hamamatsu FDSS Fluorometric Plate Reader. The cells were loaded with either a Ca2+-sensitive fluorescent dye or the thallium responsive dye and the plates were washed and placed into a suitable kinetic plate reader. For human mGluR4 assays, a fluorescence baseline was established for 3-5 seconds, the disclosed compounds were then added to the cells, and the response in cells was measured. Approximately two and a half minutes later, a concentration of mGluR4 orthosteric agonist (e.g. glutamate or L-AP4) eliciting approximately 20% (EC20) of the maximal agonist response was added to the cells, and the response was measured. Two minutes later, a concentration of mGluR4 agonist (e.g. glutamate or L-AP4) eliciting 80% (EC80) of the maximal agonist response was added to the cells, and the response was measured. For rat mGluR4/GIRK experiments, a baseline was established for approximately five seconds, disclosed compounds were added, and either an EC20 or EC80 concentration of agonist was added approximately two and one half minutes later. Potentiation of the agonist response of mGluR4 by the disclosed compounds was observed as an increase in response to the EC20 concentration of agonist in the presence of compound compared to the response to agonist in the absence of compound. Similarly, antagonism of the agonist response of mGluR4 by the disclosed compounds was observed as a decrease in response to the EC80 concentration of agonist in the presence of compound compared to the response to agonist in the absence of compound.
The above described assay operated in two modes. In the first mode, a range of concentrations of the disclosed compounds are added to cells, followed by a single fixed concentration of agonist. If the compound acts as a potentiatior, an EC50 value for potentiation and a maximum extent of potentiation by the compound at this concentration of agonist is determined by non-linear curve fitting. If the compound acts as a noncompetitive antagonist, an IC50 value is determined by non-linear curve fitting. In the second mode, several fixed concentrations of the disclosed compounds are added to various wells on a plate, followed by a range in concentrations of agonist for each concentration of disclosed compound. The EC50 values for the agonist at each concentration of compound are determined by non-linear curve fitting. A decrease in the EC50 value of the agonist with increasing concentrations of the sample compound (a leftward shift of the agonist concentration-response curve) is an indication of the degree of mGluR4 potentiation at a given concentration of the sample compound. A decrease in the maximal response of the agonist with increasing concentrations of the sample compounds, with or without a rightward shift in agonist potency, is an indication of the degree of noncompetitive antagonism at mGluR4. The second mode also indicates whether the sample compounds also affect the maximum response to mGluR4 to agonists.

Point of comparison: `CC12CCCCN1C(=O)N(c1ccc(NC(=O)c3cccc(Cl)n3)cc1Cl)C2=O` (centres unmarked) [Example 1.3.85, 6-chloro-N-(3-chloro-4-(8a-methyl-1,3-dioxohexahydroimidazo[1,5-a]pyridin-2(3H)-yl)phenyl)picolinamide], EC50 864 nM. Against it:
- O=C(Nc1ccc(N2C(=O)C3COCCN3C2=O)c(Cl)c1)c1cccc(F)n1 (centres unmarked) [Example 1.3.29, N-(3-Chloro-4-(1,3-dioxodihydro-1H-imidazo[5,1-c][1,4]oxazin-2(3H,8H,8aH)-yl)phenyl)-6-fluoropicolinamide] — 7.8-fold higher, 6730 nM
- O=C(Nc1ccc(N2C(=O)C3COCCN3C2=O)c(Cl)c1)c1ncc(F)cc1F (centres unmarked) [Example 1.3.27, N-(3-Chloro-4-(1,3-dioxodihydro-1H-imidazo[5,1-c][1,4]oxazin-2(3H,8H,8aH)-yl)phenyl)-3,5-difluoropicolinamide] — 3.4-fold higher, 2930 nM
- CC12CCCCN1C(=S)N(c1ccc(NC(=O)c3cccnn3)cc1Cl)C2=O (centres unmarked) [Example 1.3.100, N-(3-chloro-4-(8a-methyl-1-oxo-3-thioxohexahydroimidazo[1,5-a]pyridin-2(3H)-yl)phenyl)pyridazine-3-carboxamide] — 2.2-fold higher, 1900 nM
- O=C(Nc1ccc(N2C(=O)C3CCCCN3C2=S)c(Cl)c1)c1cccc(Cl)n1 (centres unmarked) [Example 1.3.75, 6-chloro-N-(3-chloro-4-(1-oxo-3-thioxohexahydroimidazo[1,5-a]pyridin-2(3H)-yl)phenyl)picolinamide] — 3.8-fold higher, 3260 nM
- CC12CCCCN1C(=S)N(c1ccc(NC(=O)c3ccc(Cl)o3)cc1Cl)C2=O (centres unmarked) [Example 1.3.97, 5-chloro-N-(3-chloro-4-(8a-methyl-1-oxo-3-thioxohexahydroimidazo[1,5-a]pyridin-2(3H)-yl)phenyl)furan-2-carboxamide] — within 1.5-fold, 828 nM
- CN1CC(=O)N(c2ccc(NC(=O)c3ccccn3)cc2Cl)C1=O [Example 1.3.11, N-(3-chloro-4-(3-methyl-2,5-dioxoimidazolin-1-yl)phenyl)picolinamide] — 8.2-fold higher, 7060 nM
- C[C@]1(Cc2ccccc2)NC(=O)N(c2ccc(NC(=O)c3ccccn3)cc2Cl)C1=O [Example 1.3.19, (R)-N-(4-(4-Benzyl-4-methyl-2,5-dioxoimidazolidin-1-yl)-3-chlorophenyl)picolinamide] — within 1.5-fold, 840 nM
- O=C(Nc1ccc(N2C(=O)C3COCCN3C2=S)c(Cl)c1)c1ccccn1 (centres unmarked) [Example 1.3.30, N-(3-Chloro-4-(1-oxo-3-thioxodihydro-1H-imidazo[5,1-c][1,4]oxazin-2(3H, 8H,8aH)-yl)phenyl)picolinamide] — 1.7-fold higher, 1470 nM
- O=C(Nc1ccc(N2C(=O)C3COCCN3C2=O)c(Cl)c1)c1ncccc1F (centres unmarked) [Example 1.3.22, N-(3-Chloro-4-(1,3-dioxodihydro-1H-imidazo[5,1-c][1,4]oxazin-2(3H,8H,8aH)-yl)phenyl)-3-fluoropicolinamide] — 6.7-fold higher, 5820 nM
- CC12CCCCN1C(=S)N(c1ccc(NC(=O)c3cccc(Cl)n3)cc1Cl)C2=O (centres unmarked) [Example 1.3.93, 6-chloro-N-(3-chloro-4-(8a-methyl-1-oxo-3-thioxohexahydroimidazo[1,5-a]pyridin-2(3H)-yl)phenyl)picolinamide] — 2.8-fold higher, 2400 nM
- CCN1C(=O)N(c2ccc(NC(=O)c3ccccn3)cc2Cl)C(=O)[C@]1(C)Cc1ccccc1 [Example 1.3.65, (S)-N-(4-(4-benzyl-3-ethyl-4-methyl-2,5-dioxoimidazolidin-1-yl)-3-chlorophenyl)picolinamide] — 3.7-fold lower, 236 nM
- O=C(Nc1ccc(N2C(=O)NC3(CCCCC3)C2=O)c(Cl)c1)c1ccccn1 [Example 1.3.12, N-(3-chloro-4-(2,4-dioxo-1,3-diazaspiro[4.5]decan-3-yl)phenyl)picolinamide] — 3.8-fold lower, 229 nM
- O=C(Nc1ccc(N2C(=O)C3CCCCN3C2=S)c(Cl)c1)c1ncc(F)cc1F (centres unmarked) [Example 1.3.81, N-(3-chloro-4-(1-oxo-3-thioxohexahydroimidazo[1,5-a]pyridin-2(3H)-yl)phenyl)-3,5-difluoropicolinamide] — within 1.5-fold, 876 nM
- O=C(Nc1ccc(N2C(=O)C3CSCCN3C2=O)c(Cl)c1)c1cscn1 (centres unmarked) [Example 1.3.43, N-(3-chloro-4-(1,3-dioxodihydro-1H-imidazo[5,1-c][1,4]thiazin-2(3H,8H,8aH)-yl)phenyl)thiazole-4-carboxamide] — 4.4-fold higher, 3760 nM
- CC12CCCCN1C(=O)N(c1ccc(NC(=O)c3ccccn3)cc1Cl)C2=O (centres unmarked) [Example 1.3.48, N-(3-chloro-4-(8a-methyl-1,3-dioxohexahydroimidazo[1,5-a]pyridin-2(3H)-yl)phenyl)picolinamide] — 2-fold lower, 434 nM
- O=C(Nc1ccc(N2C(=O)C3COCCN3C2=S)c(Cl)c1)c1ccc(Cl)o1 (centres unmarked) [Example 1.3.37, 5-Chloro-N-(3-chloro-4-(1-oxo-3-thioxodihydro-1H-imidazo[5,1-c][1,4]oxazin-2(3H, 8H,8aH)-yl)phenyl)-furan-2-carboxamide] — 5.8-fold higher, 5050 nM
- O=C(Nc1ccc(N2C(=O)C3COCCN3C2=O)c(Cl)c1)c1cccc(Cl)n1 (centres unmarked) [Example 1.3.23, 6-Chloro-N-(3-chloro-4-(1,3-dioxodihydro-1H-imidazo[5,1-c][1,4]oxazin-2(3H,8H,8aH)-yl)phenyl)picolinamide] — 5.6-fold higher, 4830 nM
- O=C(Nc1ccc(N2C(=O)NC3(CCCC3)C2=O)c(Cl)c1)c1ccccn1 [Example 1.3.13, N-(3-chloro-4-(2,4-dioxo-1,3-diazaspiro[4.4]nonan-3-yl)phenyl)picolinamide] — within 1.5-fold, 795 nM
- O=C(Nc1ccc(N2C(=O)C3CCCCN3C2=S)c(Cl)c1)c1cccs1 (centres unmarked) [Example 1.3.77, N-(3-chloro-4-(1-oxo-3-thioxohexahydroimidazo[1,5-a]pyridin-2(3H)-yl)phenyl)thiophene-2-carboxamide] — 3.2-fold higher, 2780 nM
- CC12CCCCN1C(=S)N(c1ccc(NC(=O)c3cnccn3)cc1Cl)C2=O (centres unmarked) [Example 1.3.92, N-(3-chloro-4-(8a-methyl-1-oxo-3-thioxohexahydroimidazo[1,5-a]pyridin-2(3H)-yl)phenyl)pyrazine-2-carboxamide] — 2.2-fold higher, 1910 nM
- CC12CCCCN1C(=S)N(c1ccc(NC(=O)c3ccccn3)cc1Cl)C2=O (centres unmarked) [Example 1.3.49, N-(3-chloro-4-(8a-methyl-1-oxo-3-thioxohexahydroimidazo[1,5-a]pyridin-2(3H)-yl)phenyl)picolinamide] — 4.7-fold lower, 185 nM
- CC(C)C[C@]1(C)NC(=O)N(c2ccc(NC(=O)c3ccccn3)cc2Cl)C1=O [Example 1.3.16, (S)-N-(3-chloro-4-(4-isobutyl-4-methyl-2,5-dioxoimidazolidin-1-yl)phenyl)picolinamide] — 4.2-fold higher, 3590 nM
- CN1C(=O)N(c2ccc(NC(=O)c3ccccn3)cc2Cl)C(=O)[C@]1(C)Cc1ccc(F)cc1 [Example 1.3.62, (S)-N-(3-chloro-4-(4-(4-fluorobenzyl)-3,4-dimethyl-2,5-dioxoimidazolidin-1-yl)phenyl)picolinamide] — 4-fold lower, 217 nM
- O=C(Nc1ccc(N2C(=O)C3COCCN3C2=S)c(Cl)c1)c1cscn1 (centres unmarked) [Example 1.3.35, N-(3-Chloro-4-(1-oxo-3-thioxodihydro-1H-imidazo[5,1-c][1,4]oxazin-2(3H,8H,8aH)-yl)phenyl)thiazole-4-carboxamide] — 1.7-fold higher, 1490 nM
- O=C(Nc1ccc(N2C(=O)C3COCCN3C2=O)c(Cl)c1)c1cccs1 (centres unmarked) [Example 1.3.24, N-(3-Chloro-4-(1,3-dioxodihydro-1H-imidazo[5,1-c][1,4]oxazin-2(3H,8H,8aH)-yl)phenyl)thiophene-2-carboxamide] — 11-fold higher, 9500 nM
- O=C(Nc1ccc(N2C(=O)C3CN(C(=O)c4ccco4)CCN3C2=O)c(Cl)c1)c1ccccn1 (centres unmarked) [Example 1.3.74, N-(3-chloro-4-(7-(furan-2-carbonyl)-1,3-dioxohexahydroimidazo[1,5-a]pyrazin-2(3H)-yl)phenyl)picolinamide] — within 1.5-fold, 967 nM
- CC12CCCCN1C(=O)N(c1ccc(NC(=O)c3cscn3)cc1Cl)C2=O (centres unmarked) [Example 1.3.87, N-(3-chloro-4-(8a-methyl-1,3-dioxohexahydroimidazo[1,5-a]pyridin-2(3H)-yl)phenyl)thiazole-4-carboxamide] — 3.1-fold higher, 2670 nM
- O=C(Nc1ccc(N2C(=O)C3COCCN3C2=S)c(Cl)c1)c1ncccc1F (centres unmarked) [Example 1.3.39, N-(3-Chloro-4-(1-oxo-3-thioxodihydro-1H-imidazo[5,1-c][1,4]oxazin-2(3H, 8H,8aH)-yl)phenyl)-3-fluoropicolinamide] — within 1.5-fold, 1200 nM
